The structures appear in SMILES notation. Read-outs that look alike come from different tables or passages of the source.

In series [1] the test system is male SD rats with 7/8 of their kidney arteries ligated. Put plainly: renal osteodystrophy model: rats with 7/8 of kidney arteries ligated, oral administration for 4 months; femur mineral content by single photon absorptiometry and bone histology. The class given is in vivo. Particulars: sham-operated control 0.284± 0.023, ligation-operated control 0.259± 0.017. From the text: In view of these circumstances, the present inventors have made extensive investigations to develop novel rat models wherein renal insufficiency induces abnormal bone quality and low bone mass similar to clinical renal osteodystrophy. As a result, the present inventors have succeeded in obtaining an animal model with such diseases. Thus, after 7/8 of kidney arteries were ligated, animals endurable even for a long breeding term with a mild renal insufficiency were selected and carefully bred for 6 months to establish an animal model with renal osteodystrophy with accompanying abnormal bone quality and low bone mass.
After male SD rats with 7/8 of their kidney arteries ligated at 11 weeks old are bred for 8 weeks, 24R, 25-(OH)₂-D₃ and 24, 25-(OH)₂-D₃ (a racemate of 24R and 24S isomers) are administered orally to the rat for 4 months, respectively.
A solution of sesame oil (the Pharmacopoeia of Japan) containing 0.5 % ethanol is utilized as the solvent. The test is conducted by using 5 groups each of which consists of 6 to 10 rats as follows: • I. sham-operated control group (normal control group, solvent administration) n=8 • II. solvent administration control group n=6 • III. 24R, 25-(OH)₂-D₃ 0.1 µg/kg n=6 • IV. 24R, 25-(OH)₂-D₃ 5.0 µg/kg n=10 • V. 24, 25-(OH)₂-D₃ 5.0 µg/kg n=10
After administration, blood is anesthetically collected and applied to a biochemical serum analysis. After femur is resected, mineral content of femur is measured by means with equipment capable of measuring bone mass (single photon absorptiometry; SPA). Further, the bone tissue sample is stained by Villaneuva's bone staining after slicing, followed by observation under a microscope.

Series [2] in a line: acute toxicity, oral administration in sesame oil, death rates for 2 weeks. The note with it: mouse, in vivo, sesame oil containing 0.5 % ethanol, read-out: LD₅₀ (lethal dose, 50% mortality). Here is the method:
The active compound of the present invention is tested for acute toxicity and the resultant data is shown as follows:
The active compound of the present invention, 24R, 25-(OH)₂-D₃ is admixed with a sesame oil (containing 0.5 % ethanol) and the mixture is orally administered to 4 groups of female and male ICR mice (each group has 5 mice) (body weight: male 29 to 33 g, female 22 to 29 g). Two weeks later, toxic symptom is observed.

As for `C=C1CC[C@H](O)C/C1=C/C=C1\CCC[C@]2(C)[C@@H]([C@H](C)CCC(O)C(C)(C)O)CC[C@@H]12` (some centres unmarked) [24, 25-(OH)₂-D₃, 24, 25-dihydroxycholecalciferol], in series [1] (5.0 µg/kg orally for 4 months), the “bone mass (mineral content of femur, SPA)” value is 0.282± 0.025 g/cm².

With `C=C1CC[C@H](O)C/C1=C/C=C1\CCC[C@]2(C)[C@@H]([C@H](C)CC[C@@H](O)C(C)(C)O)CC[C@@H]12` [24R, 25-(OH)₂-D₃, 24R, 25-dihydroxycholecalciferol], the LD50 at 336 h in series [2] (female ICR mice) stood at 253 mg/kg; in series [2] (male ICR mice), 215 mg/kg. Moreover, the “bone mass (mineral content of femur, SPA)” value in series [1] (0.1 µg/kg orally for 4 months) was 0.291± 0.032 g/cm²; in series [1] (5.0 µg/kg orally for 4 months), 0.292 ± 0.019 g/cm².
